Test results reported in patent US11981944B2, “Immunogenic arginase peptides” (IO Biotech ApS, priority 2016, dated 2024).

Key:
[1] = system: peripheral blood mononuclear cells (PBMC); experiment: IFN-gamma ELISPOT secretion assay on PBMC (Example 1); format: cell-based, human; settings: for immune responses against overlapping 20mer peptides: PBMC from three cancer patients, FIG. 3
[2] = system: T2-cells loaded with peptide; experiment: 51Cr-release assay for CTL-mediated cytotoxicity; format: cell-based, human; settings: standard chromium release assay; FIG. 5
Experimental: Conventional ^51Cr-release assays for CTL-mediated cytotoxicity were carried out as described elsewhere. Target cells were T2-cells (ATCC), HLA-A2^+ melanoma cell lines (FM3 and FM93)
In this experiment Arginase specific T cells were incubated 4 h with either Cr-labeled melanoma cell lines FM3 or FM93 at different effector:target ratios. Both cell lines express intracellular Arginase.

[3] = system: C57BL/6 and Balb/c mice; experiment: Peptide vaccination of mice and IFNgamma ELISPOT of spleen or dLN cells; format: in vivo, mouse; settings: 100 μg peptide s.c. day0 and day7
Experimental: Animals were vaccinated subcutaneously with 100 μg peptide in DMSO/H2O in a 1:1 emulsion with incomplete Freund's adjuvant (IFA) or montanide. IFA+DMSO/H2O served as a control vaccine. Vaccinations were carried out on day0 and day7. For subsequent analysis of the immune response to specific peptides, mice were sacrificed on day 14 and spleen and draining lymph nodes (dLNs) were harvested.
Murine immune cells were subjected to ELISPOT analysis. Single cell suspension was prepared from spleen or dLNs by passage through a cell strainer. After lysis of red blood cells, 0.9×10E6 cells/well were seeded into ELISPOT plates coated with anti-IFNgamma antibody. Peptide of interest was added to designated wells and cells were incubated o/n with peptide. The next day, cells were removed, plates washed and incubated with biotinylated detection antibody. Finally, after addition of Streptavidin-ALP and substrate visible spots appear. Each spot corresponds to an individual IFNgamma producing cell. Plates were analysed in an Immunospot analyser and plotted as spots/0.9×10E6 cells minus background (i.e. minus number of spots in corresponding unstimulated (no peptide) wells).

[4] = system: arginase-specific CD4+ T-cell culture; experiment: Recognition by arginase-specific CD4+ T-cell culture (ArgShort-stimulated); format: cell-based, human; settings: IFNγ ELISPOT and intracellular staining; FIG. 11C
Experimental: PBMCs from healthy donors or cancer patients were stimulated with 80 μg of arginase-derived peptides and 120 U/ml IL-2 (Peprotech, London, UK, cat. 200-02) for a week. 4-6×10^5 PBMCs were then placed in the bottom of ELISPOT plate (nitrocellulose bottomed 96-well plates by MultiScreen MAIP N45; Millipore, cat. MSIPN4W50) pre-coated with IFN-y capture Ab (Mabtech, cat. 3420-3-1000) and 1-10 μg of arginase derived peptides were added. PBMCs from each patient and donors were set up in duplicates or triplicates for peptide and control stimulations. Cells were incubated in ELISPOT plates in the presence of an antigen for 14-16 hours after which they are washed off and secondary biotinylated Ab (Mabtech, cat. 3420-6-1000) was added. After 2 h incubation unbound secondary antibody was washed off and streptavidin conjugated alkaline phosphatase (AP) (Mabtech, cat. 3310-10) was added for 1 h. Next, unbound conjugated enzyme is washed off and the assay is developed by adding BCIP/NBT substrate (Mabtech, cat. 3650-10). Developed ELISPOT plates were analysed on CTL ImmunoSpot S6 Ultimate-V analyzer using Immunospot software v5.1. Responses were calculated as the difference between average numbers of spots in wells stimulated with Arginase-1 peptides and control wells.
Arginase-specific T cell culture were established by stimulation of cancer patient PBMC with irradiated ArgShort (SEQ ID NO 9) peptide-loaded autologous DC or PBMCs. The following day IL-7 and IL-12 (PeproTech, London, UK, cat. 200-07-10 and 200-12) were added. Stimulation of the cultures were carried out every 8 days with ArgShort peptide loaded irradiated autologous DC followed by ArgShort peptide-loaded irradiated autologous PBMC. The day after peptide stimulation IL-2 […]. After 5 stimulations arginase-specific T cells were enriched using TNF-α cell enrichment kit (MiltenyiBiotec, cat. 130-091-269).
Flow cytometry analysis was performed on a FACSCanto™ II (BD Biosciences, San Jose CA, USA). […]

[5] = system: PBMCs from healthy donors or cancer patients; experiment: IFNγ ELISPOT on PBMCs after one week peptide and IL-2 stimulation (Example 2); format: cell-based, human; settings: for spontaneous IFNγ ELISPOT responses against 20-mer library peptides: cancer (melanoma) patient PBMCs, FIG. 9A
Experimental: PBMCs from healthy donors or cancer patients were stimulated with 80 μg of arginase-derived peptides and 120 U/ml IL-2 (Peprotech, London, UK, cat. 200-02) for a week. 4-6×10^5 PBMCs were then placed in the bottom of ELISPOT plate (nitrocellulose bottomed 96-well plates by MultiScreen MAIP […]; Millipore, cat. MSIPN4W50) pre-coated with IFN-y capture Ab (Mabtech, cat. 3420-3-1000) and 1-10 μg of arginase derived peptides were added. PBMCs from each patient and donors were set up in duplicates or triplicates for peptide and control stimulations. Cells were incubated in ELISPOT plates in the presence of an antigen for 14-16 hours after which they are washed off and secondary biotinylated Ab (Mabtech, cat. 3420-6-1000) was added. After 2 h incubation unbound secondary antibody was washed off and streptavidin conjugated alkaline phosphatase (AP) (Mabtech, cat. 3310-10) was added for 1 h. Next, unbound conjugated enzyme is washed off and the assay is developed by adding BCIP/NBT substrate (Mabtech, cat. 3650-10). Developed ELISPOT plates were analysed on CTL ImmunoSpot S6 Ultimate-V analyzer using Immunospot software v5.1. Responses were calculated as the difference between average numbers of spots in wells stimulated with Arginase-1 peptides and control wells. We divided the entire arginase-1 protein sequence into overlapping 20-amino-acid-long peptides, generating a library of 31 peptides covering the whole sequence (SEQ ID NOs 18-48)). Each peptide in the library overlapped with the first 10 amino acids of the following peptide. Using this arginase peptide library and the IFNγ ELISPOT assay, we next screened PBMCs from melanoma patients and healthy donors for spontaneous responses (FIGS. 9A and 9B). The PBMCs were stimulated for one week with a pool of 3-4 adjacent 20-mer arginase library peptides and low-dose IL-2 (120 U/mL). They were then set up for an IFNγ ELISPOT assay to screen for responses against each 20-mer peptide separately. […] Among these overlapping peptides, […]-200), and Arg(191-210) spanned a 50-amino-acid-long region that was deemed a hot-spot region since nearly all patients harbored a response against one or more of these peptides (FIG. 9A). The selected eight peptides were further used to screen for spontaneous immune responses against arginase-1 in PBMCs from eight healthy donors using IFNγ ELISPOT. […] Since we most frequently observed responses against arginase-1 peptides from the hot-spot region, we next analyzed whether longer peptides covering the same sequence could be used instead of four 20-mers. […] We then divided the arginase-1 hot-spot region into two 30-mer peptides that overlapped by 10 amino acids (peptides labelled by reference to start and end position): […]-190) and […]-210). These 30-mer peptides were used to check for responses in selected PBMCs from cancer patients and healthy donors, which had previously shown responses against the 20-mer hot-spot peptides. The PBMCs were stimulated for one week with either […]-190) or […]-210) in the presence of IL-2, and were then used in IFNγ ELISPOT.

[6] = system: TILs from eight melanoma patients; experiment: Intracellular staining for IFNγ and TNFα release in melanoma TILs; format: cell-based, human; settings: for IFNγ or TNFα release from CD8+ T cells: TILs; for IFNγ or TNFα release from CD8+ T cells / IFNγ release from CD4+ T cells: 5 h peptide stimulation; for IFNγ release from CD4+ T cells: one of the TIL cultures, FIG. 10A
Experimental: Flow cytometry analysis was performed on a FACSCantoTM II (BD Biosciences, San Jose CA, USA). Intracellular staining of cell cultures was performed after the cells were stimulated with 20-mere peptides for 5 hours or 30-mere peptides for 8h (BD GolgiPlugTM cat. 555029, was added after the first hour). The cells were then stained for surface markers, then washed and permeabilized by using Fixation/Permeabilization and Permeabilization Buffer (eBioscience, cat. 00-5123-43), according to manufacturer's instructions. Antibodies used: IFNγ-APC (cat. 341117), TNFα-BV421 (cat. 562783), CD4-FITC (cat. 347413), CD8-PerCP (cat. 345774) (all from BD Biosciences). Dead cells were stained using FVS510 (564406, BD Biosciences) according to manufacturer's instructions. To investigate the potential presence of arginase-specific T cells among tumor-infiltrating lymphocytes in cancer, we screened TILs from eight melanoma patients for responses against arginase-1 derived peptides. To this end, we performed intracellular staining for IFNγ and TNFα release in response to peptide stimulation. TILs were thawed and rested overnight without IL-2, and then stimulated for 5 h with three hot-spot immunogenic region 20-mer peptides (peptides labelled by reference to start and end position): […]-200). […] The percentage of IFNγ-producing cells was higher for […]-190) and […]-200) compared to […]-180), and the response against […]-200) was almost twice that against […]-180).

[7] = system: CT26.WT colon cancer cells; experiment: Tumor vaccination of Balb/c mice bearing CT26.WT tumors; format: in vivo, mouse; settings: for tumor growth relative to vaccination with control peptide: vaccination day6 and day 13, FIG. 16
[8] = CD4+ T cells in TILs, 5 h stimulation

IVYIGLRDV (Peptide fragment of human Arginase 1) [Arg8, positions 174-182 of human Arginase 1]
specific T-cell responses against Arg-derived peptide ([1]; IFN-gamma ELISPOT, PBMC from six melanoma patients, FIG. 1): Strong responses
Immune responses against Arg 8 peptide ([1]; PBMC from 6 cancer patients, specific cells/3×10e5 cells, FIG. 2): Very strong responses were frequently detected
killing of peptide-loaded target cells by CD8 positive culture [2]: can kill target cells loaded with Arg8

KDIVYIGL (Peptide fragment of human Arginase 1) [mARG1, positions 172-179 of human Arginase 1; murine region identical]
immunogenicity (peptide specific IFNgamma ELISPOT response) ([3]; C57BL/6 mice, FIG. 14): immunogenic

GFSWVTPCISAKDIVYIGLRDVDPGEHYILKTLGIKYFSMTEVDRLGIGK (Peptide fragment of human Arginase 1) [50-mer peptide, 50-mer covering the entire hot-spot region, positions 161-210 of human Arginase 1]
recognition by T-cell culture specific against the minimal arginase epitope [4]: not recognized
IFNγ ELISPOT responses against longer hot-spot peptides ([5]; selected PBMCs from cancer patients and healthy donors, one week stimulation with IL-2, FIG. 10B, 10C): lower responses compared to the 20-mer peptides

GFSWVTPCISAKDIVYIGLR (Peptide fragment of human Arginase 1) [Arg1-17, positions 161-180 of human Arginase 1; murine region identical]
IFNγ or TNFα release from CD8+ T cells [6]: No IFNγ or TNFα release was observed
IFNγ release from CD4+ T cells [6]: IFNγ was released from CD4+ T cells
immune responses against overlapping 20mer peptides [1]: Frequent immune responses were detected
immunogenicity (peptide specific IFNgamma ELISPOT response) ([3]; Balb/c mice, FIG. 15): immunogenic
immunogenicity (peptide specific IFNgamma ELISPOT response) ([3]; C57BL/6 mice, FIG. 14): immunogenic
tumor growth relative to vaccination with control peptide [7]: inhibit tumor growth
spontaneous IFNγ ELISPOT responses against 20-mer library peptides [5]: highest and most abundant responses

DVDPGEHYILKTLGIKYFSM (Peptide frgment of human Arginase 1) [Arg1-19, positions 181-200 of human Arginase 1]
percentage of IFNγ-producing cells compared to Arg(161-180) [6, 8]: higher
response relative to that against Arg(161-180) [6, 8]: almost twice that against Arg(161-180)
IFNγ or TNFα release from CD8+ T cells [6]: No IFNγ or TNFα release was observed
IFNγ release from CD4+ T cells [6]: IFNγ was released from CD4+ T cells
immune responses against overlapping 20mer peptides [1]: Frequent immune responses were detected
immunogenicity (peptide specific IFNgamma ELISPOT response) ([3]; Balb/c mice, FIG. 15): immunogenic
immunogenicity (peptide specific IFNgamma ELISPOT response) ([3]; C57BL/6 mice, FIG. 14): immunogenic
size of the tumor growth effect among the tested peptides [7]: most noticeable
tumor growth relative to vaccination with control peptide [7]: inhibit tumor growth
spontaneous IFNγ ELISPOT responses against 20-mer library peptides [5]: highest and most abundant responses

KTLGIKYFSMTEVDKLGIGK (Peptide fragment of murine Arginase 1) [mARG20, positions 191-210 of murine Arginase 1]
immunogenicity (peptide specific IFNgamma ELISPOT response) ([3]; Balb/c mice, FIG. 15): immunogenic
immunogenicity (peptide specific IFNgamma ELISPOT response) ([3]; C57BL/6 mice, FIG. 14): immunogenic
size of the tumor growth effect among the tested peptides [7]: most noticeable
tumor growth relative to vaccination with control peptide [7]: inhibit tumor growth

LGIKYFSM (Peptide fragment of human Arginase 1) [mARG2, positions 193-200 of human Arginase 1; murine region identical]
immunogenicity (peptide specific IFNgamma ELISPOT response) ([3]; Balb/c mice, FIG. 15): not immunogenic
immunogenicity (peptide specific IFNgamma ELISPOT response) ([3]; C57BL/6 mice, FIG. 14): not immunogenic
